Test results reported in patent US20130171189A1, “INDUCIBLE AND REPRESSIBLE VACCINIA VIRUSES WITH IMPROVED SAFETY” (priority 2011, published 2013).
Where two headings read alike, the source gives them in different places.

Test system: BS-C-1 cells
Type: cell-based
Conditions: vRG0-infected cells
Protocol: EGFP Expression Levels by vRG0 Were not Repressed Even in the Presence of High Concentrations of TCs: To test whether vRG0 was repressible by TCs, BS-C-1 cells were infected with vRG0 in the presence of increasing concentrations of ATC, TET, or DOX. The cytopathic effect observed by brightfield microscopy 2 days post-infection was indistinguishable from the cytopathic effect observed from cells treated with ATC and 10 μg/ml or less of TET or DOX (data not shown).
Since TCs complexed to MgCl2 bind to the TetR repressor with higher affinity than TCs alone (a commonly used strategy when studying induced conformation of the repressor by x-ray crystallography), ATC was incubated with MgCl2 to allow for complex formation.

[1] = 100 μg/ml, 2 days post-infection

Structure (SMILES)	Cell toxicity [1]	also measured
Cc1c2c(c(O)c3c(O)cccc13)C(=O)[C@]1(O)C(=O)C(C(N)=O)=C(O)[C@@H](N(C)C)[C@@H]1C2 [ATC, anhydrotetracycline]		Cell toxicity (lower concentrations than TET and DOX): did not incur any toxicity
C[C@H]1c2cccc(O)c2C(=O)C2=C(O)[C@]3(O)C(=O)C(C(N)=O)=C(O)[C@@H](N(C)C)[C@@H]3[C@@H](O)[C@@H]21 [DOX, doxycycline]	morphology associated with cell toxicity	
[Cl-].[Cl-].[Mg+2] [MgCl2]		Cell toxicity (100 mM MgCl2 (ATC-MgCl2), 2 days): toxicity-associated morphology
CN(C)[C@@H]1C(O)=C(C(N)=O)C(=O)[C@@]2(O)C(O)=C3C(=O)c4c(O)cccc4[C@@](C)(O)[C@H]3C[C@@H]12 [TET, tetracycline]	morphology associated with cell toxicity	
